The values below come from ChEMBL document CHEMBL1201862, “PubChem BioAssay data set” (2004).

Counter-ions that a name gives are not always drawn. Activity calls are given as the source filed them.

One test concerns the target Beta-galactosidase (Escherichia coli, UniProt Q8VNN2). Kind of test: PubChem AID 485352. In kind it is functional.
The target of test [1] is T1, Type-1 angiotensin II receptor (Homo sapiens, UniProt P30556).
T1 sequence (P30556 whole entry): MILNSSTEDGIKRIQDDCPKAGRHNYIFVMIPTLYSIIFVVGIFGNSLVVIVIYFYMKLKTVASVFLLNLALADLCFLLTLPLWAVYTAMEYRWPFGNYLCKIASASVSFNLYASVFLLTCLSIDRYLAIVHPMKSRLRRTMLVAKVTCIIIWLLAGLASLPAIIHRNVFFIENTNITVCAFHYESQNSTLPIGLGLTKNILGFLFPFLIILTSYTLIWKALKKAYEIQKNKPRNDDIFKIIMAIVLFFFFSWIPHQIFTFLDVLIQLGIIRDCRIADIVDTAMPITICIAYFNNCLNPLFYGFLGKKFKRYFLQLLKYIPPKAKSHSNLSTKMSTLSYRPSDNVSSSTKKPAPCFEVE
As to the kind of experiment: antagonism of angiotensin II type 1 receptor – cell-based, uHTS hits, selectivity assay for APJ receptor antagonist project, dose response (AID 463214).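 Also: antagonist potency against angiotensin II stimulated AT1 response.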 In kind it is functional.

Test [2] is described as follows: viability loss in THP-1 monocytes – THP-1 cells, cytotoxicity control for Vif-APOBEC3G degradation inhibitor project, dose response (AID 1117359). In kind it is functional. The settings on record: THP-1.
Test [3] concerns the target Heat shock protein HSP 90-alpha (Homo sapiens, UniProt P07900). In kind it is functional, organism-based.
In the next test the target is Cytochrome P450 2C19 (Homo sapiens, UniProt P33261). Kind of test: Cytochrome panel assay with activity outcomes. Panel member name: p450-cyp2c19 Compounds with AC50 equal or less than 10 uM are considered active. The settings on record: read-out: AC50. In kind it is functional.
In the next test the target is T2, Cytochrome P450 1A2 (Homo sapiens, UniProt P05177).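 Also: PubChem cytochrome P450 panel assay, CYP1A2 panel member.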
T2 sequence (P05177 whole entry): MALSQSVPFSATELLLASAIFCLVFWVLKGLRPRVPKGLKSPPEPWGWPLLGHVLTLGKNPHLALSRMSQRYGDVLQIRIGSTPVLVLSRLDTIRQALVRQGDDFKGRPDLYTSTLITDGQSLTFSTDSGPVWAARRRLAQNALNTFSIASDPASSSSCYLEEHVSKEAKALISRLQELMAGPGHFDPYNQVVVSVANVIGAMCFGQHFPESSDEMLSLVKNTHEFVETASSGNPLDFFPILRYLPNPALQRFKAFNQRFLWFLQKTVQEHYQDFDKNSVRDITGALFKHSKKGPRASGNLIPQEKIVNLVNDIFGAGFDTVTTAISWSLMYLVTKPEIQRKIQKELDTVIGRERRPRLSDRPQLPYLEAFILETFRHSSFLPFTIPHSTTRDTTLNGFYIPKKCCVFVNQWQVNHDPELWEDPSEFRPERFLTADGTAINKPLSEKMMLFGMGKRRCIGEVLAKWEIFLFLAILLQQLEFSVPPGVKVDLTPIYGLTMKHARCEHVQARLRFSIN

In test [4] the target is Adenosylmethionine-8-amino-7-oxononanoate aminotransferase (Mycobacterium tuberculosis, UniProt P9WQ81). Kind of test: Mycobacterium tuberculosis BioA enzyme inhibitor Measured in Biochemical System Using Plate Reader - 2163-02_Inhibitor_Dose_CherryPick_Activity. In kind it is functional, Mycobacterium tuberculosis UT205.
Test [5] is described as follows: blockade of melanocortin 4 receptor signaling – cell-based, plate reader, cherry pick, counter-screen for LGR2 antagonist project, dose response (AID 743444).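 Also: transfected HEK 293 cells stimulated with alpha-MSH peptide; potency of inhibitors of the alpha-MSH evoked signal.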 In kind it is functional. (Counterscreens check selectivity or assay interference.)
The test system of the next test is HEK293. Kind of test: EBV LMP1 TES2 canonical NF-kB signalling blockers – cell-based, HEK293, luciferase, cherry-pick, dose response (AID 588343). In kind it is functional. The settings on record: Homo sapiens.
Test [6] is described as follows: blockers of bursicon-stimulated LGR2 cAMP reporter – cell-based, HEK293, CRE-luciferase reporter, cherry pick, set 2, dose response (AID 743343).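 Also: transfected cells were stimulated with diluted bursicon conditioned medium after compound addition.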 In kind it is functional. A general note: A reporter such as luciferase makes a cellular process visible.
The target of another test is Melanocortin receptor 4 (Homo sapiens, UniProt P32245). In kind it is functional, cell-based.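 Also: Cell-based assay with luminescence read-out, confirmatory dose-response testing for agonist activity of biased ligands at MC4R; human U2OS cells with tagged receptor and beta-arrestin; potency of agonists that increase receptor coupling to beta-arrestin.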
In test [7] the target is DNA repair and recombination protein RAD54-like (Homo sapiens, UniProt Q92698). As to the kind of experiment: RAD54 Holliday junction migration blockers – biochemical, fluorescence, cherry-picked samples, dose series, confirmation (AID 651657). In kind it is functional.
A further test has as its system H9c2. As to the kind of experiment: cells. It counts as functional, cell-based. The conditions noted are these: Rattus norvegicus, H9c2, Myocardium.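 Also: confirmatory concentration-response retest of ultra-high-throughput screening hits for modulation of myocardial damage; cell death induced by hydrogen peroxide oxidative stress; compound pretreatment for 60 min then peroxide exposure for 2 h; potency is for protecting the cells against peroxide damage rather than for killing them.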
Test [8] addresses T3, Fatty acid synthase (Homo sapiens, UniProt P49327). Kind of test: inhibition of human FAS-TE enzyme activity – biochemical, endpoint fluorescence intensity, uHTS hits, dose response (AID 624327).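 Also: fluorescence from hydrolysis of an O-methyl fluorescein acyl ester substrate by the enzyme.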 In kind it is functional.
The next test has as its target Beta Lactamase (Pseudomonas aeruginosa, UniProt Q932Y6). As to the kind of experiment: BLA reporter interference, concentration series – BLA reporter cells, FRET fluorescence, artefact control for NOD2-RIPK2 interaction inhibitor project, dose response (AID 651552). It counts as functional, cell-based.
For test [9], the target named is T3, Fatty acid synthase. As to the kind of experiment: inhibition of human FAS-TE enzyme activity – biochemical, kinetic fluorescence intensity, dose response (AID 624326).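 Also: rate of fluorescence rise from hydrolysis of a fluorogenic O-methyl fluorescein ester substrate.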 In kind it is functional.
Test [10] is described as follows: Fluorescence-based cell-based high throughput dose response assay for inhibitors of the interaction of nucleotide-binding oligomerization domain containing 2 (NOD2) and the receptor-interacting serine-threonine kinase 2 (RIPK2). The settings on record: Homo sapiens. It counts as functional.
In test [11] the target is T4, Low molecular weight phosphotyrosine protein phosphatase (Homo sapiens, UniProt P24666).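 Also: Dose-response confirmation assay measuring inhibition of LMPTP enzyme activity by fluorescence intensity read-out.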
T4 sequence (P24666 whole entry): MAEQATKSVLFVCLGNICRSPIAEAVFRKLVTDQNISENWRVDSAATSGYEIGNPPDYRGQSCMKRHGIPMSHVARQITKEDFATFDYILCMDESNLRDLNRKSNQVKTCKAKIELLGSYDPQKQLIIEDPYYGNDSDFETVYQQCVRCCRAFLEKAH
In kind it is functional. The conditions noted are these: read-out: IC50_Mean.

Test [12] has as its target Voltage-gated inwardly rectifying potassium channel KCNH2 (Homo sapiens, UniProt Q12809). The settings on record: Potency.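 Also: confirmatory quantitative high-throughput screen measuring inhibition of hERG channel activity.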
Test [13] addresses T5, DNA repair protein RAD52 homolog (Homo sapiens, UniProt P43351).
T5 sequence (P43351 whole entry): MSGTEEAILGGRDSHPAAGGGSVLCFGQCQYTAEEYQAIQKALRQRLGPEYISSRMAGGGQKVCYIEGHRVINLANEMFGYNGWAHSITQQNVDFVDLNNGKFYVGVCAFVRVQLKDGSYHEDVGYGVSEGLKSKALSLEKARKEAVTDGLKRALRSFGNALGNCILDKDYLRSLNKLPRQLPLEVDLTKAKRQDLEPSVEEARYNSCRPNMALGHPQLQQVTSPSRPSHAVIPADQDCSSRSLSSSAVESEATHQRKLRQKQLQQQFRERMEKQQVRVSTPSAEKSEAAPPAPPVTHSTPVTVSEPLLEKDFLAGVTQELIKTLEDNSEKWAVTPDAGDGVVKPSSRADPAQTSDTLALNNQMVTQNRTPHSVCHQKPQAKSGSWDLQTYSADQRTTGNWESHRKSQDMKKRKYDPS
In kind it is functional, biochemical.

Chain of Adenosylmethionine-8-amino-7-oxononanoate aminotransferase (P9WQ81 whole entry): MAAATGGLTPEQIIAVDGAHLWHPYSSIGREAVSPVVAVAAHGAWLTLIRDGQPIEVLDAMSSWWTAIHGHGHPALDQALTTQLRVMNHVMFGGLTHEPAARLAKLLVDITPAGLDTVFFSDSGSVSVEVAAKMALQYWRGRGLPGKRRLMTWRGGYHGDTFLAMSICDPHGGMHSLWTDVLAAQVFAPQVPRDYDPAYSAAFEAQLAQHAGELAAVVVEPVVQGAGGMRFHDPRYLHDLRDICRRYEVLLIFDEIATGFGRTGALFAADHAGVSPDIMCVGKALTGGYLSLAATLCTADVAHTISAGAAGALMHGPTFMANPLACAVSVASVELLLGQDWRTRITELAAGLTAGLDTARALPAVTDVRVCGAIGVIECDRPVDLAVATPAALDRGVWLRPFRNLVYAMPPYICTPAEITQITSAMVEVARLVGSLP
Chain of Melanocortin receptor 4 (P32245 whole entry): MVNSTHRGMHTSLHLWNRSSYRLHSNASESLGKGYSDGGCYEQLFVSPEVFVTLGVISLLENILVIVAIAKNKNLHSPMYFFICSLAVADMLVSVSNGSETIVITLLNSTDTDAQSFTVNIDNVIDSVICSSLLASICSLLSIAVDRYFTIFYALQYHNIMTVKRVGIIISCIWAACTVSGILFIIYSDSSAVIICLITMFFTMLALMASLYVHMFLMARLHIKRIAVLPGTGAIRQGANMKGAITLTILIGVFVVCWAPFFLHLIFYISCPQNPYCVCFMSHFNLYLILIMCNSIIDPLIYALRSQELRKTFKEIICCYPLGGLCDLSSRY
T3 sequence (P49327 whole entry): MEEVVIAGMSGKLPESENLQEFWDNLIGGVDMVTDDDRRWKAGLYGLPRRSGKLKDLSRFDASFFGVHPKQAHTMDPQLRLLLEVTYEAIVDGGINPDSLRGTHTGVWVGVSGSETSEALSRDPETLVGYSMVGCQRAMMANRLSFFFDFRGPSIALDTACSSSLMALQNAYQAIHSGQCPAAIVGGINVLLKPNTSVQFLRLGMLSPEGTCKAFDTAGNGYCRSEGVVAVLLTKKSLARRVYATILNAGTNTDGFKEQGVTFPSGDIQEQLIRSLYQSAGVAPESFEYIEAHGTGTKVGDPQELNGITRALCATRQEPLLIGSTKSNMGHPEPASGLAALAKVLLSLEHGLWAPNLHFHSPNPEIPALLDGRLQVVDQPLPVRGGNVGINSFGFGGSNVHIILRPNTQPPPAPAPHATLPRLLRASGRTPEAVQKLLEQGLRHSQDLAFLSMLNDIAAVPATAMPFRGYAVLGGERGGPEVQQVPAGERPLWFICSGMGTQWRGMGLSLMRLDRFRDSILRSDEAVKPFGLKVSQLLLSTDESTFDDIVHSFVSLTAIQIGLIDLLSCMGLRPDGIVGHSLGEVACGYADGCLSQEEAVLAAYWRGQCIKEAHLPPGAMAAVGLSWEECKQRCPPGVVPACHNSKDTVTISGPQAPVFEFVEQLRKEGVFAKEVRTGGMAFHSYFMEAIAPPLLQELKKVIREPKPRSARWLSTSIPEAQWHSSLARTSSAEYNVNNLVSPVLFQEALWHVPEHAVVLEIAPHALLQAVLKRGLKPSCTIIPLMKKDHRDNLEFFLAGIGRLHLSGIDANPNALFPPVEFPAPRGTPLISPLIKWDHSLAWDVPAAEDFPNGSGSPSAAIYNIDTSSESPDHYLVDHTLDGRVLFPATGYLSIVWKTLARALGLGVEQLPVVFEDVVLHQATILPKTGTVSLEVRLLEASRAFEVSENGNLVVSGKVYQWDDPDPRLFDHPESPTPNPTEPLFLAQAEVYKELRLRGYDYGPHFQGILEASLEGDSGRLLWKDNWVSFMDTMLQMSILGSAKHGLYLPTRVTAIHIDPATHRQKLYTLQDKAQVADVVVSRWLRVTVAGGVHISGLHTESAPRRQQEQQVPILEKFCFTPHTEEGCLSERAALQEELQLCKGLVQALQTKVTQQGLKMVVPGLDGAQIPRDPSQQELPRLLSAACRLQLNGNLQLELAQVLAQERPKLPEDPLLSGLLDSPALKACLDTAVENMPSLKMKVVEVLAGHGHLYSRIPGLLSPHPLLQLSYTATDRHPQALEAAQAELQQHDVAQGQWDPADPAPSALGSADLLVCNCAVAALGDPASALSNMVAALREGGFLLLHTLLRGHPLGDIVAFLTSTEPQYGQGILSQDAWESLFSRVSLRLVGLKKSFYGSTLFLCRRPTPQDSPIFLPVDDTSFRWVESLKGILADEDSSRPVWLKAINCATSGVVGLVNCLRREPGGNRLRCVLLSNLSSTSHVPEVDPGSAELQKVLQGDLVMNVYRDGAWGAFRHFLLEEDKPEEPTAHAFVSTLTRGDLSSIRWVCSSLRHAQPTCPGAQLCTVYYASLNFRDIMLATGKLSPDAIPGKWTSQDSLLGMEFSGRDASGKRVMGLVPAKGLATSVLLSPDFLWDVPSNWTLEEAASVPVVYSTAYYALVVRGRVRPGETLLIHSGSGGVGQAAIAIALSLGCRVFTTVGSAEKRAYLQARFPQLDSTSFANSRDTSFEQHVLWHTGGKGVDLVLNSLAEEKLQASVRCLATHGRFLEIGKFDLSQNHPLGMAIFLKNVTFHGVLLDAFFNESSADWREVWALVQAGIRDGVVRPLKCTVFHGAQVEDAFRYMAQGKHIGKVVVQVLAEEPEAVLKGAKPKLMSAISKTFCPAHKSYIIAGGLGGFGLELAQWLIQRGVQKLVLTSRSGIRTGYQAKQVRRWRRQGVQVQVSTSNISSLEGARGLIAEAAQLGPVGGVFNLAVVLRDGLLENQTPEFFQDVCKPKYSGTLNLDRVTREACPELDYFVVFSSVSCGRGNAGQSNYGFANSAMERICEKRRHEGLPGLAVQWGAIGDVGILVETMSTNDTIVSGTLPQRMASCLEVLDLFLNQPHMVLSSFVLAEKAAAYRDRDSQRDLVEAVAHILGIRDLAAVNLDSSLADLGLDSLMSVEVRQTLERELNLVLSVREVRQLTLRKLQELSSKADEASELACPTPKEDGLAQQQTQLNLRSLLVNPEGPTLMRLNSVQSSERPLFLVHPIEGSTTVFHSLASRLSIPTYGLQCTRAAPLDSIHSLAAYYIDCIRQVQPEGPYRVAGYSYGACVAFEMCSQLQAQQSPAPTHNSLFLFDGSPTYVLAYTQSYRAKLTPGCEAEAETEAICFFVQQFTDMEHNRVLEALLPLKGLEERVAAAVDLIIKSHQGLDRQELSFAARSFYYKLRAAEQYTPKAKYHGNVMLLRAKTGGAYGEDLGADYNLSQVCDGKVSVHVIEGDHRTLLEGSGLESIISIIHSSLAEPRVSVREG
Chain of DNA repair and recombination protein RAD54-like (Q92698 whole entry): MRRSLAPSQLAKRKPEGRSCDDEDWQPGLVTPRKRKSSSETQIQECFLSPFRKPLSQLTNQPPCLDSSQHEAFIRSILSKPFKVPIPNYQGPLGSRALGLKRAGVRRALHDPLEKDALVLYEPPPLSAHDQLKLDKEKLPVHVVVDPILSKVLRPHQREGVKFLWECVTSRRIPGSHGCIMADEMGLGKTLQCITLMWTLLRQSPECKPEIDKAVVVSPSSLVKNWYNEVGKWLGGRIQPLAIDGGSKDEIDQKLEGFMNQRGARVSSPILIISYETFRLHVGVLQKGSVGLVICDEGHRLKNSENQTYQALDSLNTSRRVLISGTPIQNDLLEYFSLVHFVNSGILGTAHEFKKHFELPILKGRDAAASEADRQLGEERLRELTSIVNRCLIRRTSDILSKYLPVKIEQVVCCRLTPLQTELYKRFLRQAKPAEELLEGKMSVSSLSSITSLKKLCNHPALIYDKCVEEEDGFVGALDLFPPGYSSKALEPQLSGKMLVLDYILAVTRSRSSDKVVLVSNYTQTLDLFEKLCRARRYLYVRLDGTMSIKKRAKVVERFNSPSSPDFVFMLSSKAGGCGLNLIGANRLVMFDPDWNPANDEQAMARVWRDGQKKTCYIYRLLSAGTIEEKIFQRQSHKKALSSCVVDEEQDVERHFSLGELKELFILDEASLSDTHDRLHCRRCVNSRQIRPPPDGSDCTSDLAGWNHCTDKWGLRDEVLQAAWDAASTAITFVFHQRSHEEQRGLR
Chain of Beta-galactosidase (Q8VNN2 whole entry): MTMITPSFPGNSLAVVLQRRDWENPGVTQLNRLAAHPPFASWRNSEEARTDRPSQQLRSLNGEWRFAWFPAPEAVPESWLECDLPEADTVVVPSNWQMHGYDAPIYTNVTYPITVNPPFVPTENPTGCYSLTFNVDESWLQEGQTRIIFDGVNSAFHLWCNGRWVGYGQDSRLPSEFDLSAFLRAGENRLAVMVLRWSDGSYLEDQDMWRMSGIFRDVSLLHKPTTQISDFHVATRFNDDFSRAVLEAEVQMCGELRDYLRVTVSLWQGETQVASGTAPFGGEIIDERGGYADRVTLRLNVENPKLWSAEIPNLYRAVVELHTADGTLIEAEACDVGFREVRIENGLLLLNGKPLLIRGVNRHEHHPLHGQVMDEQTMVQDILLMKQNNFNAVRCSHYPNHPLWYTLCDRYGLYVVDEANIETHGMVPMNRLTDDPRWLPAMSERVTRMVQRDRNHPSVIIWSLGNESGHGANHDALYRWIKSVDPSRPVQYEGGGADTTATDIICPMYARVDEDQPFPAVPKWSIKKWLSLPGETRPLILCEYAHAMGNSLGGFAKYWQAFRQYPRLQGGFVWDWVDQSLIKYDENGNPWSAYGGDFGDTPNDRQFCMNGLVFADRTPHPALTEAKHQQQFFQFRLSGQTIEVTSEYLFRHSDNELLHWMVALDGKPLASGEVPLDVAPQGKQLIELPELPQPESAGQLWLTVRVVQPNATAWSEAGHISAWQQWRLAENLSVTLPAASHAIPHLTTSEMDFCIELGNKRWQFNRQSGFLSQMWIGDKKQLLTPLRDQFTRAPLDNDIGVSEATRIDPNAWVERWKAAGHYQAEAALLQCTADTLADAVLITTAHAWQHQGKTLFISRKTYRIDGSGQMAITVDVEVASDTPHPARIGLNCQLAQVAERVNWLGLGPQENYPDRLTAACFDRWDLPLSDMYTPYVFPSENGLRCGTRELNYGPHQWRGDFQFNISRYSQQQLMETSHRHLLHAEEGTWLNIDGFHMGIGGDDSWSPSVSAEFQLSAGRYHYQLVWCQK

Take `Cc1ccc(C(C[N+](=O)[O-])Sc2ccc(N)cc2)cc1` (stereo not drawn): the 50% effective concentration (EC50) on Beta-galactosidase was 31.3 µM (active). For the same molecule, the IC50 in [1] is 16.9 µM (active). Moreover, in test [2], the CC50 was > 40 µM (active). In addition, the AC50 in test [3] is 4.99 µM (active).
In the case of `Cc1cc(/C=C(/C#N)C(=O)Nc2ccccc2)c(C)n1-c1cccnc1`, the results for the AC50 (at Cytochrome P450 2C19; at Cytochrome P450 1A2; in test [4]) were 2 µM (inconclusive), 1.78 µM (inconclusive) and 0.306 µM (active), respectively.
On to `O=C(Nc1cccc(C(=O)O)c1)Nc1ccccc1Cl`, for which the AC50 in [5] was 4.29 µM (active); in the test on HEK293 it was 4.97 µM (active); in test [6] it was 2.75 µM (active).
Regarding `COc1ccc(COc2ccsc2C(=O)Nc2ccc(Cl)c(Cl)c2)cc1`, the EC50 at Melanocortin receptor 4 was > 89.2 µM (inactive).
With `COc1ccc(OC)c2c(C)cc(NCCN3CCOCC3)nc12`, the AC50 in test [7] is 37.6 µM (active).
With `NC(=S)NN=Cc1nccc2c(N)cccc12`, the AC50 with HEK293 was 1.55 µM (active).
On to `Cc1cccc(-n2c(SCC(=O)N(C)C3CCS(=O)(=O)C3)nc3ccccc3c2=O)c1C` (stereo not drawn), for which the half-maximal activity concentration (AC50) in [4] is 3.13 µM (active).
For `COc1cccc(-c2cnc3c(NC(C)=O)cc(-c4cc(OC)c(OC)c(OC)c4)cn23)c1`, in the test with H9c2, the IC50 is > 79 µM (inactive). For the same molecule, the EC50 on Melanocortin receptor 4 was > 89.2 µM (inactive).
For the molecule `CCOC(=O)[C@]12Cc3cc(C)ccc3[C@H]1N(C1CCCCC1)C(=O)c1ccccc12`, the IC50 is 6.98 µM (active) on Fatty acid synthase [8], 39 µM (inactive) at Beta Lactamase, 6.17 µM (active) on Fatty acid synthase [9] and 2.28 µM (active) in test [10].
As for `CCOc1ccc(C(=O)N/N=C/c2cc([N+](=O)[O-])cs2)cc1`, in test [11], the IC50 was 14.4 µM (active).
Take `CN(C)c1nc(N)c(C(=O)NC(=N)N)nc1Cl` [5-(N,N-DIMETHYL)AMILORIDE HYDROCHLORIDE]: the AC50 was 17.8 µM (inconclusive) in test [12] and 18 µM (active) in test [13].

The EC50 is the concentration at which the effect is half-maximal. As usually defined, the CC50 is the concentration giving 50% cytotoxicity. Usually AC50 stands for the concentration giving half of the maximal activity seen.
